According to patent US6107316A, “Method for treating protozoal infections” (priority 1998, dated 2000):
Values after ≈ are worked out from the molar mass of the structure shown. Where two headings read alike, the source gives them in different places.

Key:
[1] = tested on: Toxoplasma gondii; conditions: Stokkermans et al., 1996; cited from earlier work
[2] = tested on: Cryptosporidium parvum; conditions: Arrowood et al., 1996; cited from earlier work
[3] = tested on: Tetrahymena pyriformis; experiment: in vitro growth inhibitory activity against the ciliate Tetrahymena pyriformis; type: cell-based, Tetrahymena pyriformis (ATCC strain 30005); conditions: read-out: EC50 Tetrahymena pyriformis
Method: Compounds were evaluated for in vitro growth inhibitory activity against the ciliate Tetrahymena pyriformis, which was used as an indicator organism for the Apicomplexia since by several criteria the ciliates and Apicomplexa are closely related (Edlind T. D. et al., Mol. Phylogenet. Evol. vol. 5, pp. 359-367, 1996). T. pyriformis (ATCC strain 30005) was grown in 1 ml ATCC medium 357 at 25° C. in 4 ml polyallomer culture tubes without shaking. Compounds were dissolved in dimethylsufoxide (DMSO) and added to the cultures (containing 3,000 cells/ml) such that the final DMSO concentration was 0.1-0.3%. […] Parasitol. vol. 84, pp. 355-370, 1996) and Cryptosporidium parvum (Arrowood et al., FEMS Microbial. Lett., vol. 136, pp. 245-249, 1996) were tested for comparison.

SMILES	in vitro activity against Toxoplasma gondii [1]	in vitro activity against Cryptosporidium parvum [2]	EC50 ([3]; 24 h)	EC50 ([3]; 24 hours, 25° C.)
CCC(CC)Nc1c([N+](=O)[O-])cc(C)c(C)c1[N+](=O)[O-] [pendimethalin]	have in vitro activity	have in vitro activity	2 µg/mL (≈ 7.11 µM)	
CCCN(CCC)c1c([N+](=O)[O-])cc(C(F)(F)F)cc1[N+](=O)[O-] [trifluralin]	have in vitro activity	have in vitro activity		> 6 µg/mL
